The source of these data is paper PMC5610524, “Tools for the Individualized Therapy of Teicoplanin for Neonates and Children” (Antimicrobial Agents and Chemotherapy, 2017).

Data set [1] can be described thus: Nonparametric population PK model (two-compartment, allometric, renal function) fitted to plasma teicoplanin concentrations in neonates, infants and children. It is filed as in vivo, human. The note with it: final model. The text has this: Pharmacokinetic data from 57 children (39 children aged 1 month to 16 years old and 18 neonates with a postmenstrual age [PMA] between 26 and 44 weeks) were available for model building. Patients were prospectively enrolled from two different hospitals in Liverpool (Alder Hey NHS Children's Foundation Trust and Liverpool Women's Hospital) over a 21-month period (April 2013 and January 2015). These PK data have been reported previously in two separate population models ([1], [2]). […] Such an approach avoids the problem of having multiple pharmacokinetic models for the same drug, each with an arbitrarily chosen cutoff value for age or size.
Neonates with a PMA of ≤44 weeks received a loading dose of 16 mg/kg, followed by 8 mg/kg once daily via a 30-min intravenous (i.v.) infusion. Children >1 month old received three loading dosages of 10 mg/kg every 12 h, followed by 10 mg/kg once daily via an i.v. bolus infusion (2 to 5 min), according to the dosages currently recommended by the SPC ([11]). Plasma samples were collected during the first dosage interval and then at steady state (1, 3, 6, and 24 h postdose) on days 3 to 7 of therapy. Neonates weighing <1,000 g contributed two samples per dosing interval because of constraints on sample volume. The duration of the treatment course was at the discretion of the treating physician. All patients received teicoplanin for proven or suspected methicillin-resistant staphylococcal sepsis (due to either coagulase-negative staphylococci [CoNS] or MRSA) and/or central-line-associated bloodstream infection. Demographic variables included weight, height, age in years, PMA in weeks, postnatal age (PNA) in days, serum albumin concentration (in grams per liter), and serum creatinine concentration. The estimated glomerular filtration rate (eGFR) (Schwartz-Haycock) ([28]) was also available for each patient.
Teicoplanin concentrations were measured using a commercially available fluorescence polarization immunoassay (FPIA; Thermo Fisher Scientific, Germany). The limit of quantification (LOQ) was <3.0 mg/liter. The dynamic range was 3 to 100 mg/liter, and overall precision (intra- and interday variability) was <6%.
A PK model was fitted to the data using Pmetrics, version 1.4.2 for R, statistical package 3.2.2, which utilizes the nonparametric adaptive grid (NPAG) algorithm ([29]). The inverse of the estimated assay variance was used to weight the data. Initially, a standard two-compartment model with time-delimited zero-order i.v. input and first-order elimination from the central compartment was developed. The standard model is described by differential equations 1a and 1b below: (1a) dX(1)/dt=R(1)−(Kcp+Cl/V)⋅X(1)+[Kpc⋅X(2)] (1b) dX(2)/dt=Kcp⋅X(1)−Kpc⋅X(2) where X(1) and X(2) represent the amounts of teicoplanin (in milligrams) in the central (c) and peripheral (p) compartments, respectively; R(1) is the rate of infusion of the drug into the central compartment (in milligrams per hour); clearance (Cl) from the central compartment is measured in liters per hour; volume (V) is measured in liters; and the central and peripheral compartments are connected by the first-order rate constants Kcp and Kpc (measured per hour).
In neonates and children, clearance generally scales with size in a nonlinear manner that is best described using a power function. A scaling exponent of 0.75 is most frequently used (i.e., clearance is proportional to weight^0.75). In addition, physiological maturation may also affect clearance, and this is especially important for neonates and young infants ([30], [31]). In the model-building process, we switched from using clearance to using Ke (measured per hour) as the first-order elimination rate constant, where Ke is calculated as Cl/V and is proportional to weight^−0.25. While it is possible to estimate the scaling exponents directly, we chose to fix these values as previously described by others ([24], [30], [31]). […]

The nature of data set [2]: BestDose multiple-model Bayesian adaptive dose optimization software, individual simulations for an infant and an older child. The note with it: trapezoidal approximation to hourly software predictions. Also noted: species or system human. The text has this: We incorporated the final population PK model into a teicoplanin multiple-model Bayesian adaptive dosing controller (the software “cartridge”). The controller is based on the concepts and software (BestDose) developed by the University of Southern California Laboratory for Applied Pharmacokinetics and Bioinformatics (LAPKB) (http://www.lapk.org) ([35], [36]). The teicoplanin cartridge included the final structural model equations relating input (dosing information) to output (concentrations of the drug in plasma) and the discrete joint probability distribution of the values of the equation variables (PK parameters) in the population, consisting of a discrete number of support points and their associated probabilities (the Bayesian prior). […]
The dose optimization software was tested by comparing the estimated predicted PK profile plot against the observations, as well as by the linear regression of the observed-versus-predicted concentrations for each individual patient. From the predicted concentrations based on the median individual Bayesian posterior parameter distribution, we calculated the bias, which is equal to the mean weighted predicted error (∑ wpe/N), where wpe is (predicted concentration − actual concentration)/(SD for each prediction/observation), N is the number of observations, and the percentage of bias. […]

As to teicoplanin, the “V01, weight-standardized volume of the central compartment (V0), mean” value in data set [1] (n = 57, occasion 1 (<96 h), Volume = V0 · (wt/70), population mean) is 22.636 L. In addition, the “V01, weight-standardized volume of the central compartment (V0), median” value in data set [1] (n = 57, occasion 1 (<96 h), Volume = V0 · (wt/70), population median) amounted to 19.52 L. In addition, the “Ke01, weight-standardized elimination rate constant (Ke0), median” value in data set [1] (n = 57, occasion 1 (<96 h), standardized to 70 kg, Ke = Ke0 · (wt/70)^−0.25 · Renal, population median) turned out to be 0.03 h⁻¹. Besides, the “Ke02, weight-standardized elimination rate constant (Ke0), mean” value in data set [1] (n = 57, occasion 2 (samples ≥96 h), standardized to 70 kg, population mean) stood at 0.036 h⁻¹. Also, the “V02, weight-standardized volume of the central compartment (V0), mean” value in data set [1] (n = 57, occasion 2 (≥96 h), Volume = V0 · (wt/70), population mean) is 22.472 L. The “V02, weight-standardized volume of the central compartment (V0), median” value in data set [1] (n = 57, occasion 2 (≥96 h), Volume = V0 · (wt/70), population median) was 22.7 L. For the same substance, the “Ke02, weight-standardized elimination rate constant (Ke0), median” value in data set [1] (n = 57, occasion 2 (≥96 h), standardized to 70 kg, population median) is 0.025 h⁻¹. Moreover, the “pw, power function (Renal = eGFR^pw), mean” value in data set [1] (n = 57, patients >3 months old, population mean) is recorded as 0.125. Moreover, the “pw, power function (Renal = eGFR^pw), median” value in data set [1] (n = 57, patients >3 months old, population median) was 0.07. For the same substance, in data set [1] (n = 57, population mean), the “Kcp, first-order intercompartmental rate constant, mean” value came out at 0.490 h⁻¹ and the “Kpc, first-order intercompartmental rate constant, mean” value is 0.214 h⁻¹. Also, in data set [1] (n = 57, population median), the “Kcp, first-order intercompartmental rate constant, median” value turned out to be 0.23 h⁻¹ and the “Kpc, first-order intercompartmental rate constant, median” value is 0.12 h⁻¹. The “Ke01, weight-standardized elimination rate constant (Ke0), mean” value in data set [1] (n = 57 neonates and children, i.v., occasion 1 (samples <96 h after treatment initiation), standardized to 70 kg, Ke = Ke0 · (wt/70)^−0.25 · Renal, population mean) is 0.038 h⁻¹. For the same substance, the “Median (range) 24-h AUC along the treatment course” value in data set [2] (Patient 1 (infant, 5 months, 6.3 kg, eGFR 63.84 ml/min/1.73 m^2)) is reported as 493.8 (355.8–574) mg · h/liter. Besides, the “Median (range) 24-h AUC along the treatment course” value in data set [2] (Patient 2 (child, 16.3 kg, eGFR 108.41 ml/min/1.73 m^2)) was 368.1 (318.9–388.4) mg · h/liter.
